Among the data in patent US20100204230A1, “PIPERAZINE DERIVATIVES FOR TREATMENT OF AD AND RELATED CONDITIONS” (priority 2007, published 2010) are IC50 values, retold here.

The structures appear in SMILES notation.

For the experiment, the target named is T1, γ-secretase (Aβ(1-42) production in SH-SY5Y neuroblastoma cells overexpressing SPA4CT) (Homo sapiens, UniProt P49768).
T1 construct: Human SH-SY5Y neuroblastoma cells overexpressing the direct 7-secretase substrate SPA4CT; endogenous in cells; host or cells: Human SH-SY5Y neuroblastoma cells (stably overexpressing the substrate SPA4CT, induced with sodium butyrate)
Kind of experiment: Cell-based γ-secretase assay, Aβ(1-42) inhibition. The note with it: overnight incubation, Meso Scale detection of Aβ(42). The procedure:
Cell-Based γ-Secretase Assay
Human SH-SY5Y neuroblastoma cells overexpressing the direct 7-secretase substrate SPA4CT were induced with sodium butyrate (10 mM) for 4 hours prior to plating. Cells were plated at 35,000 cells/well/100 μl in 96-well plates in phenol red-free MEM/10% FBS, 50 mM HEPES, 1% Glutamine and incubated for 2 hrs at 37° C., 5% CO2.
Compounds for testing were diluted into Me2SO to give a ten point dose-response curve. Typically 10 μl of these diluted compounds in Me2SO were further diluted into 182 μl dilution buffer (phenol red-free MEM/10% FBS, 50 mM HEPES, 1% Glutamine) and 10 μl of each dilution was added to the cells in 96-well plates (yielding a final Me2SO concentration of 0.5%). Appropriate vehicle and inhibitor controls were used to determine the window of the assay.
After incubation overnight at 37° C., 5% CO2, 25 μl and 50 μl media were transferred into a standard Meso avidin-coated 96-well plate for detection of Aβ(40) and Aβ(42) peptides, respectively. 25 μl Meso Assay buffer (PBS, 2% BSA, 0.2% Tween-20) was added to the Aβ(40) wells followed by the addition of 25 μl of the respective antibody premixes to the wells: • Aβ(40) premix: 1 μg/ml ruthenylated G2-10 antibody, 4 μg/ml biotinylated 4G8 antibody diluted in Origen buffer • Aβ(42) premix: 1 μg/ml ruthenylated G2-11 antibody, 4 μg/ml biotinylated 4G8 antibody diluted in Origen buffer
(Biotinylated 4G8 antibody supplied by Signet Pathology Ltd; G2-10 and G2-11 antibodies supplied by Chemicon)
After overnight incubation of the assay plates on a shaker at 4° C., the Meso Scale Sector 6000 Imager was calibrated according to the manufacturer's instructions. After washing the plates 3 times with 150 μl of PBS per well, 150 μl Meso Scale Discovery read buffer was added to each well and the plates were read on the Sector 6000 Imager according to the manufacturer's instructions.
LD50 and IC50 values for inhibition of Aβ(40) and Aβ(42) were calculated by nonlinear regression fit analysis using the appropriate software (eg. Excel fit). The total signal and the background were defined by the corresponding Me2SO and inhibitor controls.

The compound `COc1ccc(N2CCN(c3ncc(F)c(Nc4cc(C(C)(C)C)ccc4C)n3)CC2(C)C)cc1` [Example 8] yielded an IC50 of 0.5 to 1 µM.
`COc1ccc(N2CCN(c3nccc(Nc4ccc(-n5cccn5)cc4C)n3)CC2(C)C)cc1` [Example 41, 2-[4-(4-methoxyphenyl)-3,3-dimethylpiperazin-1-yl]-N-[2-methyl-4-(1H-pyrazol-1-yl)phenyl]pyrimidin-4-amine] returned a 50% inhibitory concentration (IC50) of 0.5 to 1 µM.
The compound `CCN(CC)c1ccc(Nc2ccnc(N3CCN(c4ccc(OC)cc4)CC3)n2)c(C)c1` [Example 3, N,N-Diethyl-N-{2-[4-(4-methoxy-phenyl)-piperazin-1-yl]-pyrimidin-4-yl}-2-methyl-benzene-1,4-diamine] returned an IC50 of 1 to 3 µM.
Regarding `CCN(CC)c1ccc(Nc2ccnc(N3CCN(c4ccc(OC)cc4)C(C)C3)n2)c(C)c1` (stereo not shown) [Example 10, N4,N4-diethyl-N1-{2-[4-(4-methoxyphenyl)-3-methylpiperazin-1-yl]pyrimidin-4-yl}-2-methylbenzene-1,4-diamine], the IC50 is 0.5 to 1 µM.
For `CCCCc1ccc(Nc2ccnc(N3CCN(c4ccc(OC)cc4)C(C)(C)C3)n2)c(C)c1` [Example 44, N-(4-butyl-2-methylphenyl)-2-[4-(4-methoxyphenyl)-3,3-dimethylpiperazin-1-yl]pyrimidin-4-amine] the value was 1 to 3 µM; for `COc1ccc(N2CCN(c3nccc(Nc4ccc(N5CCC5)cc4C)n3)CC2(C)C)cc1` [Example 43, N-(4-azetidin-1-yl-2-methylphenyl)-2-[4-(4-methoxyphenyl)-3,3-dimethylpiperazin-1-yl]pyrimidin-4-amine], 0.5 to 1 µM.
`COc1ccc(N2CCN(c3nc(Nc4cc(C(C)(C)C)ccc4C)cc(C(=O)N(C)CCN(C)C)n3)CC2(C)C)cc1` [Example 93, 6-[(5-tert-butyl-2-methylphenyl)amino]-N-[2-(dimethylamino)ethyl]-2-[4-(4-methoxyphenyl)-3,3-dimethylpiperazin-1-yl]-N-methylpyrimidine-4-carboxamide] showed an IC50 of under 0.5 µM.
Consider `CCOc1cc(C)c(Nc2cc(C(=O)OC)nc(N3CCN(c4ccc(OC)cc4)C(C)(C)C3)n2)cc1C(C)C` [Example 28, 6-[(4-ethoxy-5-isopropyl-2-methylphenyl)amino]-2-[4-(4-methoxyphenyl)-3,3-dimethylpiperazin-1-yl]pyrimidine-4-carboxylate methyl], for which the IC50 is under 0.5 µM.
In turn, `CCN(CC)c1ccc(Nc2cc(C(=O)O)nc(N3CCN(c4ccc(OC)cc4)C(C)(C)C3)n2)c(C)c1` [Example 26, 6-[[4-(diethylamino)-2-methylphenyl]amino]-2-[4-(4-methoxyphenyl)-3,3-dimethyl-1-piperazinyl]-4-pyrimidinecarboxylic acid] came in with a half-inhibitory concentration (IC50) of 0.5 to 1 µM.
Compound `CCN(CC)c1ccc(Nc2nc(N3CCN(c4ccc(OC)cc4)C(C)(C)C3)ncc2Cl)c(C)c1` [Example 19, N1-{5-chloro-2-[4-(4-methoxyphenyl)-3,3-dimethylpiperazin-1-yl]pyrimidin-4-yl}-N4,N4-diethyl-2-methylbenzene-1,4-diamine] registered an IC50 of 0.5 to 1 µM.
The compound `CCN(CC)c1cc(C)c(Nc2ccnc(N3CCN(c4ccc(OC)cc4)C(C)(C)C3)n2)cc1C` [Example 16, N4,N4-diethyl-N1-{2-[4-(4-methoxyphenyl)-3,3-dimethylpiperazin-1-yl]pyrimidin-4-yl}-2,5-dimethylbenzene-1,4-diamine] yielded an IC50 of under 0.5 µM.
For the compound `CCN(CC)c1ccc(Nc2cc(C)nc(N3CCN(c4ccc(OC)cc4)C(C)(C)C3)n2)c(C)c1` [Example 15, N4,N4-diethyl-N1-{2-[4-(4-methoxyphenyl)-3,3-dimethylpiperazin-1-yl]-6-methylpyrimidin-4-yl}-2-methylbenzene-1,4-diamine], the IC50 lay within 0.5 to 1 µM.
Take `COc1ccc(N2CCN(c3nccc(Nc4cc(OC)ccc4C)n3)CC2(C)C)cc1` [Example 11, N-(5-methoxy-2-methylphenyl)-2-[4-(4-methoxyphenyl)-3,3-dimethylpiperazin-1-yl]pyrimidin-4-amine]: the IC50 is 1 to 3 µM.
The figure for `CCN(CC)c1ccc(Nc2cc(C(=O)N(C)C)nc(N3CCN(c4ccc(OC)cc4)C(C)(C)C3)n2)c(C)c1` [Example 27, 6-{[4-(diethylamino)-2-methylphenyl]amino}-2-[4-(4-methoxyphenyl)-3,3-dimethylpiperazin-1-yl]-N,N-dimethylpyrimidine-4-carboxamide] is under 0.5 µM; for `CCOc1cc(C)c(Nc2ccnc(N3CCN(c4ccc(OC)cc4)C(C)(C)C3)n2)cc1C(C)C` [Example 45, N-(4-ethoxy-5-isopropyl-2-methylphenyl)-2-[4-(4-methoxyphenyl)-3,3-dimethylpiperazin-1-yl]pyrimidin-4-amine] it is under 0.5 µM; for `CCN(CC)c1ccc(Nc2nc(N3CCN(c4ccc(OC)cc4)C(C)(C)C3)ncc2C)c(C)c1` [Example 14, N4,N4-diethyl-N1-{2-[4-(4-methoxyphenyl)-3,3-dimethylpiperazin-1-yl]-5-methylpyrimidin-4-yl}-2-methylbenzene-1,4-diamine] it is under 0.5 µM.
Regarding `COc1ccc(N2CCN(c3ncc(F)c(Nc4cc(C(C)(C)C)nn4C)n3)CC2(C)C)cc1` [Example 38, N-(3-tert-butyl-1-methyl-1H-pyrazol-5-yl)-5-fluoro-2-[4-(4-methoxyphenyl)-3,3-dimethylpiperazin-1-yl]pyrimidin-4-amine], the IC50 is under 0.5 µM.
In turn, `CCN(CC)c1ccc(Nc2nc(N3CCN(c4ccc(OC)cc4)C(C)(C)C3)ncc2F)c(C)c1` [Example 18, N4,N4-diethyl-N1--{5-fluoro-2-[4-(4-methoxyphenyl)-3,3-dimethylpiperazin-1-yl]pyrimidin-4-yl}-2-methylbenzene-1,4-diamine] gave a half-inhibitory concentration (IC50) of under 0.5 µM.
Compound `COc1ccc(N2CCN(c3nccc(Nc4cc(C(C)(C)C)nn4C)n3)CC2(C)C)cc1` [Example 37, N-(3-tert-butyl-1-methyl-1H-pyrazol-5-yl)-2-[4-(4-methoxyphenyl)-3,3-dimethylpiperazin-1-yl]pyrimidin-4-amine] had an IC50 of under 0.5 µM.
`CCN(CC)c1ccc(Nc2nc(N3CCN(c4ccc(OC)cc4)C(C)(C)C3)ncc2OC)c(C)c1` [Example 25, N4,N4-diethyl-N1-{5-methoxy-2-[4-(4-methoxyphenyl)-3,3-dimethylpiperazin-1-yl]pyrimidin-4-yl}-2-methylbenzene-1,4-diamine] gave a half-maximal inhibitory concentration (IC50) of under 0.5 µM.
The compound `CCN(CC)c1ccc(Nc2nc(N3CCN(c4ccc(OC)cc4)C(C)(C)C3)ncc2Br)c(C)c1` [Example 20, N1-{5-bromo-2-[4-(4-methoxyphenyl)-3,3-dimethylpiperazin-1-yl]pyrimidin-4-yl}-N4,N4-diethyl-2-methylbenzene-1,4-diamine] came in with a half-inhibitory concentration (IC50) of 0.5 to 1 µM.
On to `CCN(CC)c1ccc(Nc2cc(C(=O)OC)nc(N3CCN(c4ccc(OC)cc4)C(C)(C)C3)n2)c(C)c1` [Example 22, methyl 6-{[4-(diethylamino)-2-methylphenyl]amino}-2-[4-(4-methoxyphenyl)-3,3-dimethylpiperazin-1-yl]pyrimidine-4-carboxylate], for which the concentration for half-maximal inhibition (IC50) is under 0.5 µM.
For the compound `CCN(CC)c1ccc(Nc2ccnc(N3CCN(c4ccc(OC)c(OC)c4)CC3)n2)c(C)c1` [Example 24, N1-{2-[4-(3,4-dimethoxyphenyl)piperazin-1-yl]pyrimidin-4-yl}-N4,N4-diethyl-2-methylbenzene-1,4-diamine], the half-maximal inhibitory concentration (IC50) was in the range of 1 to 3 µM.
For `CCN(CC)c1ccc(Nc2ccnc(N3CCN(c4ccc(OC)nc4)CC3)n2)c(C)c1` [Example 5] the value was 1 to 3 µM; for `COc1ccc(N2CCN(c3ncc(F)c(Nc4cc(C(C)(C)C)ccc4C)n3)CC2(C)C)cc1F` [Example 88, N-(5-tert-butyl-2-methylphenyl)-5-fluoro-2-[4-(3-fluoro-4-methoxyphenyl)-3,3-dimethylpiperazin-1-yl]pyrimidin-4-amine], 0.5 to 1 µM.

A word on the IC50: it is the concentration that gives 50% inhibition. Low values mean higher potency, high ones lower potency.
